Assay results published in EPA's ToxRefDB 2.

How the values were obtained:
mouse [1] = conditions: Multigenerational reproductive toxicity study, cd1, Oral, Water, dose end: 2 generation
rat [2] = conditions: Combined chronic toxicity/carcinogenicity, fischer, Oral, Gavage/Intubation, dose end: 104 week, group: systemic
mouse [3] = conditions: Combined chronic toxicity/carcinogenicity, b6c3f1, Oral, Gavage/Intubation, dose end: 104 week, group: systemic
rat [4] = conditions: Subchronic oral toxicity in rodents, fischer, Gavage/Intubation, dose end: 14 week, group: systemic
rat [5] = conditions: Prenatal developmental toxicity study, sprague dawley, Oral, Gavage/Intubation, dose end: 19 GD
mouse [6] = conditions: Subchronic oral toxicity in rodents, b6c3f1, Gavage/Intubation, dose end: 14 week, group: systemic
rabbit = conditions: Prenatal developmental toxicity study, new zealand white, Oral, Gavage/Intubation, dose end: 29 GD
rat [7] = conditions: Subchronic oral toxicity in rodents, fischer, Gavage/Intubation, dose end: 13 week, group: systemic
mouse [8] = conditions: Subchronic oral toxicity in rodents, b6c3f1, Gavage/Intubation, dose end: 13 week, group: systemic
mouse [9] = conditions: Carcinogenicity; cd1; Oral; Gavage/Intubation; dose end: 78 week; group: systemic; systemic / in life observation / body weight / body weight + systemic / in life observation / body weight / body weight gain
rat [10] = conditions: Chronic toxicity, sprague dawley, Oral, Gavage/Intubation, dose end: 24 month, group: systemic
dog = conditions: Chronic toxicity, beagle, Oral, Capsule, dose end: 52 week, group: systemic
[11] = group: offspring, systemic / in life observation / body weight / offspring (pup) weight + systemic / in life observation / food consumption / food consumption…
[12] = group: parental, systemic / in life observation / body weight / body weight + systemic / organ weight / ovary / relative to body weight + systemic / organ …
[13] = group: parental, systemic / in life observation / water consumption / water consumption
[14] = group: reproductive, reproductive / offspring survival early / litter size / litter size + reproductive / reproductive performance / estrous cycle / length + …
[15] = systemic / in life observation / body weight / body weight
[16] = systemic / in life observation / body weight / body weight + systemic / pathology microscopic / pancreas / atrophy
[17] = systemic / pathology microscopic / pancreas / hyperplasia
[18] = systemic / in life observation / body weight / body weight + systemic / in life observation / body weight / body weight gain + systemic / …
[19] = group: developmental, developmental / developmental malformation / bone / unossified + systemic / in life observation / body weight / fetal weight
[20] = group: maternal, systemic / in life observation / body weight / body weight + systemic / in life observation / body weight / body weight gain + systemic / …
[21] = systemic / pathology microscopic / pancreas / hyperplasia + systemic / pathology microscopic / pancreas / inflammation + systemic / …
[22] = group: developmental, systemic / in life observation / body weight / fetal weight
[23] = group: maternal, reproductive / reproductive performance / aborted / aborted + systemic / in life observation / body weight / body weight + systemic / in …
[24] = systemic / clinical chemistry / alkaline phosphatase (alp/alk) / alkaline phosphatase (alp/alk) + systemic / clinical chemistry / urea …
[25] = systemic / in life observation / body weight / body weight + systemic / in life observation / body weight / body weight gain + systemic / in…
[26] = systemic / organ weight / liver / absolute + systemic / organ weight / liver / relative to body weight
[27] = systemic / pathology microscopic / liver / hyperplasia
[28] = systemic / pathology microscopic / liver / hyperplasia + systemic / pathology microscopic / bone marrow / [other]
[29] = systemic / clinical chemistry / albumin / albumin + systemic / clinical chemistry / albumin-globulin ratio / albumin-globulin ratio + …
[30] = systemic / hematology / leukocyte (wbc) count differential / leukocyte (wbc) + systemic / pathology microscopic / bone marrow / …

NC=O [Formamide]
LOAEL (mouse [1]; [11]): > 190 mg/kg/day | NEL (mouse [1]; [11]): 26 mg/kg/day | NOAEL (mouse [1]; [11]): ≥ 190 mg/kg/day | LEL (mouse [1]; group: offspring, systemic / in life observation / food consumption / food consumption): 87 mg/kg/day | LOAEL (mouse [1]; [12]): > 190 mg/kg/day | NOAEL (mouse [1]; [12]): ≥ 190 mg/kg/day | LEL (mouse [1]; [13]): 24 mg/kg/day | NEL (mouse [1]; [13]): < 24 mg/kg/day | LEL (mouse [1]; [14]): 190 mg/kg/day | LOAEL (mouse [1]; [14]): > 190 mg/kg/day | NEL (mouse [1]; [14]): 87 mg/kg/day | NOAEL (mouse [1]; [14]): ≥ 190 mg/kg/day | LEL (rat [2]; [15]): 40 mg/kg/day | LOAEL (rat [2]; [15]): 80 mg/kg/day | NEL (rat [2]; [16]): 20 mg/kg/day | NOAEL (rat [2]; [16]): 40 mg/kg/day | LOAEL (mouse [3]; [15]): 80 mg/kg/day | NOAEL (mouse [3]; systemic / in life observation / body weight / body weight + systemic / pathology microscopic / liver / adenoma/carcinoma combined + …): 40 mg/kg/day | LEL (mouse [3]; [17]): 20 mg/kg/day | NEL (mouse [3]; [17]): < 20 mg/kg/day | LEL (rat [4]; systemic / in life observation / body weight / body weight + systemic / hematology / [other] / [other] + systemic / hematology / erythrocyte…): 40 mg/kg/day | LOAEL (rat [4]; systemic / in life observation / body weight / body weight + systemic / in life observation / body weight / body weight gain): 80 mg/kg/day | NEL (rat [4]; [18]): 20 mg/kg/day | NOAEL (rat [4]; [18]): 40 mg/kg/day | LEL (rat [5]; [19]): 100 mg/kg/day | LOAEL (rat [5]; [19]): > 200 mg/kg/day | NEL (rat [5]; [19]): 50 mg/kg/day | NOAEL (rat [5]; [19]): ≥ 200 mg/kg/day | LEL (rat [5]; [20]): 200 mg/kg/day | LOAEL (rat [5]; [20]): > 200 mg/kg/day | NEL (rat [5]; [20]): 100 mg/kg/day | NOAEL (rat [5]; [20]): ≥ 200 mg/kg/day | LEL (mouse [6]; systemic / in life observation / body weight / body weight gain + systemic / hematology / platelet / platelet): 40 mg/kg/day | LOAEL (mouse [6]; systemic / pathology microscopic / pancreas / hyperplasia + systemic / pathology microscopic / pancreas / inflammation + systemic / in life …): 80 mg/kg/day | NEL (mouse [6]; [21]): 20 mg/kg/day | NOAEL (mouse [6]; [21]): 40 mg/kg/day | LEL (rabbit; [22]): 140 mg/kg/day | LOAEL (rabbit; [22]): > 140 mg/kg/day | NEL (rabbit; [22]): 70 mg/kg/day | NOAEL (rabbit; [22]): ≥ 140 mg/kg/day | LEL (rabbit; [23]): 140 mg/kg/day | LOAEL (rabbit; [23]): > 140 mg/kg/day | NEL (rabbit; [23]): 70 mg/kg/day | NOAEL (rabbit; [23]): ≥ 140 mg/kg/day

N#CSCSC#N [Methylene bis(thiocyanate)]
LEL (rat [7]; [24]): 1 mg/kg/day | NEL (rat [7]; [24]): < 1 mg/kg/day | LOAEL (rat [7]; systemic / in life observation / mortality / mortality): 2 mg/kg/day | NOAEL (rat [7]; systemic / in life observation / mortality / mortality + systemic / clinical chemistry / alanine aminotransferase (alt/sgpt) / alanine …): 1 mg/kg/day | LOAEL (mouse [8]; [25]): > 16 mg/kg/day | NOAEL (mouse [8]; [25]): ≥ 16 mg/kg/day | LEL (mouse [8]; [26]): 1 mg/kg/day | NEL (mouse [8]; [26]): < 1 mg/kg/day | LEL (mouse [9]): 3 mg/kg/day | LOAEL (mouse [9]): 3 mg/kg/day | NEL (mouse [9]): 1.2 mg/kg/day | NOAEL (mouse [9]): 1.2 mg/kg/day | LOAEL (rat [10]; [27]): 0.4 mg/kg/day | NOAEL (rat [10]; [27]): < 0.4 mg/kg/day | LEL (rat [10]; [28]): 0.4 mg/kg/day | NEL (rat [10]; [28]): < 0.4 mg/kg/day | LOAEL (dog; [29]): 2 mg/kg/day | NOAEL (dog; [29]): 0.5 mg/kg/day | LEL (dog; [30]): 0.5 mg/kg/day | NEL (dog; [30]): < 0.5 mg/kg/day
